Assay results published in patent US10759790B2, “Heterocyclic constrained tricyclic sulfonamides as anti-cancer agents” (ICAHN SCHOOL OF MEDICINE AT MOUNT SINAI, priority 2015, dated 2020).

Columns and labels:
[1] = system: H358 cell line; test: In vivo H358 xenograft model, tumor volume (Example 17b); set-up: species or system BALB/c nu/nu mice; details: 5 mg/kg BID oral gavage, treatment day 32
Protocol: (§1) To evaluate the efficacy of Example 17b in vivo, xenograft model was utilized using the H358 cell line. H358 cells (1×10^7) were injected into the right flank of 6- to 8-week-old male BALB/c nu/nu mice. Mice were randomized to treatment groups based on initial tumor volume. Tumor volume was assessed twice a week by caliper measurement, until volumes reached an average of 200 mm^3. Mice were treated by oral gavage with vehicle control or Example 17b (5 mg/kg) BID. The treatment schedules were initiated, and the mouse tumors were measured every other day for the duration of the study. Mice body weights were recorded weekly and percentage of mice body weights during treatment was calculated as: weight at each time point/initial weight×100.

[2] = system: H1650 lung cancer cells; test: Cell viability assay (MTT, IC50 determination); assay type: cell-based; details: Homo sapiens, NCI-H1650; H1650 lung cancer cells, MTT, 48 hours after drug treatment; read-out: H1650 cell viability IC50
Protocol: Cell viability assays were performed according to Denizot, F. and R. Lang, Journal of Immunological Methods, 1986. 89(22): p. 271-277. H1650 lung cancer cells were plated at 150,000 cells per well in a 12 well plate. Twenty-four hours after plating, cells were treated as described with increasing concentrations of drug and control. Forty-eight hours after drug treatment, cells were treated with 100 μL of 3-(4,5-Dimethylthiazol-2-yl)-2,5-diphenyltetrazolium bromide (MTT) and incubated for 2 hours at 37 C. The MTT solution was subsequently replaced with 300 μL of n-propyl alcohol and re-aliquoted to a 96 well plate. Spectrophotometric analysis of each solution was performed using a 96 well plate reader at 600 nm in triplicate.

[3] = In vivo H358 xenograft model: body weights and signs of toxicity (Example 17b); set-up: species or system BALB/c nu/nu mice; details: 5 mg/kg BID oral gavage
Protocol: as §1

O=S(=O)(N[C@H]1CNC[C@@H](N2c3ccccc3Oc3ccccc32)[C@@H]1O)c1ccc(OC(F)(F)F)cc1 [Example 17b, N-((3S,4S,5R)-4-hydroxy-5-(10H-phenoxazin-10-yl)piperidin-3-yl)-4-(trifluoromethoxy)benzenesulfonamide]
% T/C (mean tumor volume) [1]: 55%
% T/C (median tumor volume) [1]: 54%
Inhibition of tumor growth versus vehicle control [1]: statistically significant inhibition of tumor (T) growth versus vehicle control (C)
Mean Tumor Volume (T) [1]: 562 mm^3
Median Tumor Volume (T) [1]: 520 mm^3
IC50 [2]: 10 µM
Signs of toxicity (mucous diarrhea, abdominal stiffness and weight loss) [3]: no adverse signs were observed
Toxicity as judged from animal body weights versus vehicle control [3]: No statistically significant toxicity was observed
% T/C (mean body weight) ([3]; H358 xenograft mice): 100.5%
% T/C (median body weight) ([3]; H358 xenograft mice): 99.4%
Mean body weight ([3]; H358 xenograft mice): 34.41 g
Median body weight ([3]; H358 xenograft mice): 34.1 g
